Data set [1] has as its system Enterobacter aerogenes (ATCC 13048). The data set is described as follows: Evaluation of bactericidal activity (MIC, Bactometer impedance) with checkerboard synergy evaluation. The format is cell-based. The note with it: value <1 denotes synergistic activity. On the procedure: A. Evaluation of Bactericidal Activity. This test method provides a technique for testing compounds for their effectiveness to control bacterial growth. MIC values represent the Minimum Inhibitory Concentration, defined as the lowest level of compound required to produce a 90% kill of a given organism.
Cell suspension from an 18 to 24 hour bacterial culture of Staphylococcus aureus (ATCC 6538) or Bacillus subtilis (ATCC 6633) or Enterobacter aerogenes (ATCC 13048) to attain a desired cell concentration. Using a McFarland nephelometer barium sulfate standard or some other suitable method, adjust the concentration of the bacterial suspension so that a final concentration of between 1×10^4 and 1×10^5 cells per ml is achieved when 100 μl of the inoculum is added to 5 ml of basal salts substrate. […]
• Bacterial growth in the tubes is measured by monitoring impedance levels on the Bactometer. • Dispense 1 ml aliquots of Modified WILKINS Chalgren Broth (Bactometer Media) into Bactometer wells; add 25 μl of treatment from the incubated tubes. […]
Synergy was measured by checkerboards dilutions (Yan and Hancock, 2001), in which one compound is diluted along the rows of test tubes and the other is diluted along the columns. […] The result is expressed as the Fractional Inhibitory Concentration Index (FIC), calculated as follows: […]

The subject of data set [2] is white water (ww) sample with a sulfite content of 12.8 ppm. As to the kind of experiment: Synergism in the presence of sulfite: ATP measurement in white water, percent inhibition. The class given is cell-based. The note with it: 10 min; BBAB 80 ppm active alone; ATP at 10 min; sulfite 12.8 ppm. The protocol: Synergism in the presence of sulfite. The effectiveness of the actives and the blend were evaluated in a white water (ww) sample with a sulfite content of 12.8 ppm. ATP measurements were performed in duplicate and percent inhibition calculated as a measure of antimicrobial efficacy. The raw data was converted to percent inhibition with use of the following formulation: % Inhibition=[(u−t)/u]×100 where: u=ATP value of untreated ww at time10 min t=ATP value of treated ww at time10 min.

The conditions of data set [3]: cited from earlier work.
The subject of data set [4] is filamentous bacteria isolate from a paper mill slime deposit (Flectobacillus species). The data set is described as follows: Synergy evaluation against filamentous bacteria (checkerboard, CFU on agar). The class given is cell-based. On the procedure: Synergy evaluation against filamentous bacteria. The checkerboard method was used to determine the Fractional Inhibitory Index (FIC) as a predictor of synergy between Activated N-Compound and Busan 1210 (BBAB) against a pure isolate of filamentous bacteria cultured from a paper mill slime deposit. The isolate was identified by 16 S ribosomal RNA sequencing technique. Gene assembly and data analysis was performed using MicroSeq data analysis and identification software; the isolate was identified as a Flectobacillus species. Modified Basal Salts Buffer was inoculated with a suspension of the bacterial isolate to yield a final concentration of 1×10^5 cells per ml. Using a delay between additions, Busan 1210 (BBAB) was added 20 minutes prior to the addition of monochloramine (MCA). After a 3 hours exposure time, the treatments were sub-cultured onto Nutrient and Plate Count Agar (PCA) and incubated at 28° C. for 48 hours. The plates were examined for colony forming units (CFU) and compared to untreated control. [formula] Synergy is expressed as a Fractional inhibitory Concentration Index (FIC), calculated as follows: FIC=[A]/[a]+[B]/[b] where, [A] and [B]=MIC of the compounds A and B when in combination [a] and [b]=MIC of the compounds A and B when alone

Here are results for 2 molecules from patent publication US20100173018A1, “Microbicidal Compositions Including Activated Nitrogenous Compound and 1,4-Bis(Bromoacetoxy)-2-Butene, and Methods Of Using The Same” (BUCKMAN LABORATORIES INTERNATIONAL, INC., priority 2009, published 2010).

“Also recorded” adds a separate entry of the source.

What is called inhibition is the percentage by which the read-out fell short of the control. For the molecule `O=C(CBr)OC/C=C\COC(=O)CBr` [BBAB, 1,4-bis(bromoacetoxy)-2-butene], the “[A]/MICA + [B]/MICB (FIC index)” value in data set [1] is reported as 1.0. Moreover, the inhibition at 80 ppm in data set [2] was 22.8%. The “solubility in isopropenol, n-butenol, glycerol, ethylene glycol, propylene glycol, and diethylene glycol” value in data set [3] (alcohols and glycols as listed) is “soluble”. For the same molecule, the “solubility in dimethylformamide and ethylene glycol monomethylether” value in data set [3] (dimethylformamide, ethylene glycol monomethylether) is “soluble”. The solubility in water result in data set [3] (water) was “extremely low; also recorded: water insoluble”.
Regarding `NCl` [MCA, monochloramine], the FIC in data set [4] (FIC=[A]/[a]+[B]/[b]) worked out at 1.0. Further, the “MIC of compound when alone ([a] / [b])” value in data set [4] (alone, 3 hours exposure, sub-cultured 28° C. for 48 hours) was 10.0(a).
